# From patent US8003649B2 (AstraZeneca AB, priority 2007, dated 2011)
# Biological target: T1, Androgen Receptor (AR) (Homo sapiens, UniProt P10275, T878A)
# T1 construct: cell based immuno-fluorescence assay using the LNCaP prostate epithelial cell line; endogenous in cells; host or cells: LNCaP clone FGC (ATCC CRL-1740)
# T1 sequence (P10275 1-920 T878A): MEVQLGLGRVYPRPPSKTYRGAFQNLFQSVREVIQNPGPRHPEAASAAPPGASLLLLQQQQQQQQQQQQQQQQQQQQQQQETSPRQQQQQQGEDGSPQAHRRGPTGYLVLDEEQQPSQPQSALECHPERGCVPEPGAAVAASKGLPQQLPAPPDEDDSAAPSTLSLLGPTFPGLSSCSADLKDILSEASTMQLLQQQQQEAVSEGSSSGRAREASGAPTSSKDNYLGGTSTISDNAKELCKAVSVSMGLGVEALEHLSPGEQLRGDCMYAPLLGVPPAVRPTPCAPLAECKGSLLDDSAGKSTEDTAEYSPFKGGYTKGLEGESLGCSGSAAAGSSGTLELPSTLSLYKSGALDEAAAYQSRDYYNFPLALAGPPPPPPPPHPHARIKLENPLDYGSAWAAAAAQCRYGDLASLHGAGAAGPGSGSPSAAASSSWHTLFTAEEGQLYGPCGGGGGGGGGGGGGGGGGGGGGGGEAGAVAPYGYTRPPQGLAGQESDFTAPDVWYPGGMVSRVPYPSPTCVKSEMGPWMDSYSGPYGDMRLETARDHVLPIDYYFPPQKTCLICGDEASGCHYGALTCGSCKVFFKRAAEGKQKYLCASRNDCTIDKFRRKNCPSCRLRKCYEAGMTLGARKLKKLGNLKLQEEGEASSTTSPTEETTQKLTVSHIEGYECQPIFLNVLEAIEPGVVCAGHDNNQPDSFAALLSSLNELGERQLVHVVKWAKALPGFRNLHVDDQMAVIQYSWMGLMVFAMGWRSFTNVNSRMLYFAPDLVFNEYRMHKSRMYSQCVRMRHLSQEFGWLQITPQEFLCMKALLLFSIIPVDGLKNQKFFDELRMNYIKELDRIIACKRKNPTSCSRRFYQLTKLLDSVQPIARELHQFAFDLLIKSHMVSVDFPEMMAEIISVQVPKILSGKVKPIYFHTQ
# Assay: LNCaP Androgen Receptor Down-regulation Cell Assay (immunofluorescence end point)
# Format: cell-based
# Conditions: LNCaP prostate carcinoma cells, compound incubation 20-22 hours, 50% reduction of the AR signal; read-out: Androgen Receptor Down-regulation Assay (a) IC50/μM
# Summary of the method: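 AR loss reported as IC50 from curve fits of fluorescence dose-response data, with AR immunostained and read by laser-scanning cytometry. Compound exposure was 20-22 h at 37° C in LNCaP cells grown in 5% charcoal-stripped FBS and plated overnight beforehand.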
row,Structure (SMILES),DC50 [µM]
1,"N#Cc1ccc(S(=O)(=O)N2CCN(c3ccc4nnc(C(F)(F)F)n4n3)CC2)cc1 [Example 857, 4-[4-[3-(trifluoromethyl)-[1,2,4]triazolo[3,4-f]pyridazin-6-yl]piperazin-1-yl]sulfonylbenzonitrile]",> 33
2,O=C(NCCO)c1cccc(OC2CCN(c3ccc4nnc(C(F)(F)F)n4n3)CC2)c1 [Example 697],> 22
3,"FC(F)(F)c1nnc2ccc(N3CC4CN(Cc5ccncc5)CC4C3)nn12 (stereo not drawn) [Example 193, 6-[2-(pyridin-4-ylmethyl)-1,3,3a,4,6,6a-hexahydropyrrolo[3,4-c]pyrrol-5-yl]-3-(trifluoromethyl)-[1,2,4]triazolo[4,3-b]pyridazine]",2
4,"COc1ccc(C(c2ccccc2)N2CCN(c3ccc4nnc(C(F)(F)F)n4n3)CC2)cc1 (stereo not drawn) [Example 25, 6-[4-[(4-methoxyphenyl)-phenylmethyl]piperazin-1-yl]-3-(trifluoromethyl)-[1,2,4]triazolo[4,3-b]pyridazine]",1.1
5,"FC(F)(F)c1nnc2ccc(N3CCN(Cc4ccnc5ccccc45)CC3)nn12 [Example 50, 4-[[4-[3-(trifluoromethyl)-[1,2,4]triazolo[4,3-b]pyridazin-6-yl]piperazin-1-yl]methyl]quinoline]",1.4
6,FC(F)(F)c1nnc2ccc(N3CCC(COc4cccnc4)CC3)nn12 [Example 560],8.8
7,FC(F)c1nnc2ccc(N3CCN(Cc4cccc(C(F)(F)F)c4)CC3)nn12 [Example 255],1.8
8,COc1ncccc1CN1CCN(c2ccc3nnc(C(F)(F)F)n3n2)CC1 [Example 775],6.8
9,N#Cc1cccc(CN2CCN(c3ccc4nnc(C(F)(F)Cl)n4n3)CC2)c1 [Example 343],1.7
10,C[C@H]1CN(Cc2cc(F)cc(F)c2)CCN1c1ccc2nnc(C(F)(F)F)n2n1 [Example 596],4.2
11,O=C(NCCN1CCOCC1)c1cccc(OC2CCN(c3ccc4nnc(C(F)(F)F)n4n3)CC2)c1 [Example 698],5.6
12,FC(F)(F)c1ccc(O[C@@H]2CCN(c3ccc4nnc(C(F)(F)F)n4n3)C2)cc1 [Example 579],4.1
13,CN1CCN(CCCC(=O)Nc2ccc(C3CCN(c4ccc5nnc(C(F)(F)F)n5n4)CC3)cc2)CC1 [Example 666],0.94
14,"FC(F)(F)c1nnc2ccc(N3CCN(Cc4cnc5ccccc5c4)CC3)nn12 [Example 64, 3-[[4-[3-(trifluoromethyl)[1,2,4]triazolo[4,3-b]pyridazin-6-yl]piperazin-1-yl]methyl]quinoline]",2.5
15,"Fc1cccc(OC2CN(c3ccc4nnc(C(F)(F)F)n4n3)C2)c1 [Example 483, 6-[3-(3-fluorophenoxy)azetidin-1-yl]-3-(trifluoromethyl)[1,2,4]triazolo[4,3-b]pyridazine]",> 30
16,O=C(c1ccc(C2CCN(c3ccc4nnc(C(F)(F)F)n4n3)CC2)cc1)N1CCC(O)CC1 [Example 740],2
17,"C[C@@H]1CN(c2ccc3nnc(C(F)(F)F)n3n2)CCN1Cc1ccncc1 [Example 828, 6-[(3R)-3-methyl-4-(pyridin-4-ylmethyl)piperazin-1-yl]-3-(trifluoromethyl)[1,2,4]triazolo[4,3-b]pyridazine]",9.5
18,FC(F)(F)c1nnc2ccc(N3CCC(Oc4cccc(OCCCN5CCNCC5)c4)CC3)nn12 [Example 445],1.6
19,"FC(F)(F)c1nnc2ccc(N3CCN(CC4CCCCC4)CC3)nn12 [Example 99, 6-[4-(cyclohexylmethyl)piperazin-1-yl]-3-(trifluoromethyl)-[1,2,4]triazolo[4,3-b]pyridazine]",2.9
20,"FC(F)(F)c1nnc2ccc(N3CCN(Cc4cccc5c4OCCO5)CC3)nn12 [Example 76, 6-[4-(2,3-dihydro-1,4-benzodioxin-5-ylmethyl)piperazin-1-yl]-3-(trifluoromethyl)-[1,2,4]triazolo[4,3-b]pyridazine]",2.3
21,"CCS(=O)(=O)c1ccc(CN2CCN(c3ccc4nnc(C(F)(F)F)n4n3)CC2)cc1 [Example 135, 6-[4-[(4-ethylsulfonylphenyl)methyl]piperazin-1-yl]-3-(trifluoromethyl)-[1,2,4]triazolo[4,3-b]pyridazine]",4.9

row,Structure (SMILES),DC50 [µM]
1,"Fc1cccc(CN2CCCN(c3ccc4nnc(C(F)(F)F)n4n3)CC2)c1 [Example 172, 6-[4-[(3-fluorophenyl)methyl]-1,4-diazepan-1-yl]-3-(trifluoromethyl)-[1,2,4]triazolo[4,3-b]pyridazine]",0.81
2,"CN(C)CCOc1ccc(CN2CCN(c3ccc4nnc(C(F)(F)F)n4n3)CC2)cc1 [Example 140, N,N-dimethyl-2-[4-[[4-[3-(trifluoromethyl)-[1,2,4]triazolo[4,3-b]pyridazin-6-yl]piperazin-1-yl]methyl]phenoxy]ethanamine]",7.1
3,FC(F)c1nnc2ccc(N3CCN(Cc4cccc(Cl)c4)CC3)nn12 [Example 248],1.7
4,FC(F)(F)c1nnc2ccc(N3CCN(Cc4c[nH]c5cccc(Cl)c45)CC3)nn12 [Example 282],2.4
5,"CC(C)(c1ccc(F)cc1)N1CCN(c2ccc3nnc(C(F)F)n3n2)CC1 [Example 271, 3-(difluoromethyl)-6-[4-[1-(4-fluorophenyl)-1-methylethyl]piperazin-1-yl][1,2,4]triazolo[4,3-b]pyridazine]",1.8
6,"FC(F)(F)c1nnc2ccc(N3CC[C@H](Oc4cccnc4)C3)nn12 [Example 587, 6-[(3S)-3-(pyridin-3-yloxy)pyrrolidin-1-yl]-3-(trifluoromethyl)[1,2,4]triazolo[4,3-b]pyridazine]",> 17
7,COc1cccc(OCC2CCN(c3ccc4nnc(C(F)(F)F)n4n3)CC2)c1 [Example 466],> 19
8,Fc1ccc(CN2CCN(c3ccc4nnc(C(F)(F)F)n4n3)CC2)c(F)c1F [Example 766],> 17
9,COCCNC(=O)c1ccc(N2CCN(c3ccc4nnc(C(F)(F)F)n4n3)CC2)cc1 [Example 745],3.4
10,"CC(C)(C)Oc1ccc(CN2CCN(c3ccc4nnc(C(F)(F)F)n4n3)CC2)cc1 [Example 114, 6-[4-[[4-[(2-methylpropan-2-yl)oxy]phenyl]methyl]piperazin-1-yl]-3-(trifluoromethyl)-[1,2,4]triazolo[4,3-b]pyridazine]",6.5
11,"FC(F)(F)c1nnc2ccc(N3CCN(Cc4ccc(Cl)nc4)CC3)nn12 [Example 137, 6-[4-[(6-chloropyridin-3-yl)methyl]piperazin-1-yl]-3-(trifluoromethyl)-[1,2,4]triazolo[4,3-b]pyridazine]",1.5
12,"CSc1ccc(CN2CCN(c3ccc4nnc(C(F)(F)F)n4n3)CC2)cc1 [Example 129, 6-[4-[(4-methylsulfanylphenyl)methyl]piperazin-1-yl]-3-(trifluoromethyl)-[1,2,4]triazolo[4,3-b]pyridazine]",0.99
13,"Cn1nccc1CCOc1ccc(C2(O)CCN(c3ccc4nnc(C(F)(F)F)n4n3)CC2)cc1 [Example 860, 4-[4-[2-(1-methyl-1H-pyrazol-5-yl)ethoxy]phenyl]-1-[3-(trifluoromethyl)[1,2,4]triazolo[4,3-b]pyridazin-6-yl]piperidin-4-ol]",0.8
14,"Nc1ccc(C2CCN(c3ccc4nnc(C(F)(F)F)n4n3)CC2)cc1 [Example 615, 4-[1-[3-(trifluoromethyl)[1,2,4]triazolo[4,3-b]pyridazin-6-yl]piperidin-4-yl]aniline]",0.88
15,"FC1(F)Oc2ccc(CN3CCN(c4ccc5nnc(C(F)(F)F)n5n4)CC3)cc2O1 [Example 100, 6-[4-[(2,2-difluoro-1,3-benzodioxol-5-yl)methyl]piperazin-1-yl]-3-(trifluoromethyl)-[1,2,4]triazolo[4,3-b]pyridazine]",1.8
16,"FC(F)(F)c1nnc2ccc(N3CC[C@H](Oc4ccncc4)C3)nn12 [Example 588, 6-[(3S)-3-(pyridin-4-yloxy)pyrrolidin-1-yl]-3-(trifluoromethyl)[1,2,4]triazolo[4,3-b]pyridazine]",5.3
17,COc1ccccc1C1(O)CCN(c2ccc3nnc(C(F)(F)F)n3n2)CC1 [Example 314],4.6
18,FC(F)(F)c1ccc(O[C@H]2CCN(c3ccc4nnc(C(F)(F)F)n4n3)C2)cc1 [Example 592],9.6
19,O=C(c1cccc(OC2CCN(c3ccc4nnc(C(F)(F)F)n4n3)CC2)c1)N1CCCC1 [Example 692],4.2
20,FC(F)(F)c1nnc2ccc(N3CCC(Oc4ccncn4)CC3)nn12 [Example 619],4.5
21,FC(F)(F)c1cccc(CN2CCN(c3ccc4nnc(C(F)(F)Cl)n4n3)CC2)c1 [Example 346],8.5
